Experimental data from patent US20040234981A1, “Method of determining dna base sequence” (priority 2001, published 2004).
Several values for one entry are separate records, joined by “and”; a condition that tells them apart may be missing. Identical values can stand only once.

B1: T7 RNA polymerase F644Y/Δ2: T7 RNA polymerase F644Y deficient in amino acids 172 and 173 and 178 through 180; plasmid pT7RF644Y/Δ2 (protein, UniProt P00573 1-883, looked up, variant F644Y del172-173 del178-180)
T7 RNA polymerase: MNTINIAKNDFSDIELAAIPFNTLADHYGERLAREQLALEHESYEMGEARFRKMFERQLKAGEVADNAAAKPLITTLLPKMIARINDWFEEVKAKRGKRPTAFQFLQEIKPEAVAYITIKTTLACLTSADNTTVQAVASAIGRAIEDEARFGRIRDLEAKHFKKNVEEQLNVGHVAFMQVVEADMLSKGLLGGEAWSSWHKEDSIHVGVRCIEMLIESTGMVSLHRQNAGVVGQDSETIELAPEYAEAIATRAGALAGISPMFQPCVVPPKPWTGITGGGYWANGRRPLALVRTHSKKALMRYEDVYMPEVYKAINIAQNTAWKINKKVLAVANVITKWKHCPVEDIPAIEREELPMKPEDIDMNPEALTAWKRAAAAVYRKDKARKSRRISLEFMLEQANKFANHKAIWFPYNMDWRGRVYAVSMFNPQGNDMTKGLLTLAKGKPIGKEGYYWLKIHGANCAGVDKVPFPERIKFIEENHENIMACAKSPLENTWWAEQDSPFCFLAFCFEYAGVQHHGLSYNCSLPLAFDGSCSGIQHFSAMLRDEVGGRAVNLLPSETVQDIYGIVAKKVNEILQADAINGTDNEVVTVTDENTGEISEKVKLGTKALAGQWLAYGVTRSVTKRSVMTLAYGSKEYGFRQQVLEDTIQPAIDSGKGLMFTQPNQAAGYMAKLIWESVSVTVVAAVEAMNWLKSAAKLLAAEVKDKKTGEILRKRCAVHWVTPDGFPVWQEYKKPIQTRLNLMFLGQFRLQPTINTNKDSEIDAHKQESGIAPNFVHSQDGSHLRKTVVWAHEKYGIESFALIHDSFGTIPADAANLFKAVRETMVDTYESCDVLADFYDQFADQLHESQLDKMPALPAKGNLNLRDILESDFAFA
B2: T7 RNA polymerase F644Y/Δ3: T7 RNA polymerase F644Y with Δ3 deficiency (DEL 178-180) (protein, UniProt P00573 1-883, looked up, variant F644Y del178-180)
T7 RNA polymerase: MNTINIAKNDFSDIELAAIPFNTLADHYGERLAREQLALEHESYEMGEARFRKMFERQLKAGEVADNAAAKPLITTLLPKMIARINDWFEEVKAKRGKRPTAFQFLQEIKPEAVAYITIKTTLACLTSADNTTVQAVASAIGRAIEDEARFGRIRDLEAKHFKKNVEEQLNKRVGHVAFMQVVEADMLSKGLLGGEAWSSWHKEDSIHVGVRCIEMLIESTGMVSLHRQNAGVVGQDSETIELAPEYAEAIATRAGALAGISPMFQPCVVPPKPWTGITGGGYWANGRRPLALVRTHSKKALMRYEDVYMPEVYKAINIAQNTAWKINKKVLAVANVITKWKHCPVEDIPAIEREELPMKPEDIDMNPEALTAWKRAAAAVYRKDKARKSRRISLEFMLEQANKFANHKAIWFPYNMDWRGRVYAVSMFNPQGNDMTKGLLTLAKGKPIGKEGYYWLKIHGANCAGVDKVPFPERIKFIEENHENIMACAKSPLENTWWAEQDSPFCFLAFCFEYAGVQHHGLSYNCSLPLAFDGSCSGIQHFSAMLRDEVGGRAVNLLPSETVQDIYGIVAKKVNEILQADAINGTDNEVVTVTDENTGEISEKVKLGTKALAGQWLAYGVTRSVTKRSVMTLAYGSKEYGFRQQVLEDTIQPAIDSGKGLMFTQPNQAAGYMAKLIWESVSVTVVAAVEAMNWLKSAAKLLAAEVKDKKTGEILRKRCAVHWVTPDGFPVWQEYKKPIQTRLNLMFLGQFRLQPTINTNKDSEIDAHKQESGIAPNFVHSQDGSHLRKTVVWAHEKYGIESFALIHDSFGTIPADAANLFKAVRETMVDTYESCDVLADFYDQFADQLHESQLDKMPALPAKGNLNLRDILESDFAFA

Experiments:
Assay type in all cases: biochemical
3′-dATP [1] = experiment: Test (1): 3′-dATP added during in vitro transcription, amount of RNA synthesized (SYBER Green II gel image); conditions: 3′-dATP concentration 0.024 mM, wild form of T7 RNA polymerase taken as 1, inverse of RNA synthesis level
Protocol: (§1) The ability to incorporate 3′-dATP of the Δ type enzyme of purified T7 RNA polymerase was compared to that of the wild type and F644Y mutation.
In this method, 3′-dATP was added during an in vitro transcription reaction and the synthesis level was determined by comparison with synthesis impairment. This will be described in greater detail. The template employed was pBluescriptII (Stratagene) pretreated with the restriction enzyme ScaI (made by Nippon Gene). The reaction conditions were: 40 mM Tris-HCl, pH 8.0, 25 mM NaCl, 8 mM MgCl2, 2 mM spermidine-(HCl)3, and 5 mM DTT. The concentration of nucleotides ATP, CTP, GTP, and UTP was 0.5 mM. Of these, ATP was replaced with 3′-dATP (Sigma) in ranges of 0.006 mM, 0.008 mM, 0.012 mM, and 0.024 mM. The above purified enzymes were added to 20 μL of this solution and the reaction was conducted for 30 to 60 min at 37° C. At the conclusion of the reaction, 4 μL of 5× gel loading buffer was added (15% Ficoll, 0.1% BPB, 0.1% XC, 0.5% SDS, and 0.1 M EDTA). The entire solution was then subjected to electrophoresis in a 1% modified agarose gel containing formaldehyde. At the conclusion of electrophoresis, 10,000-fold dilution was conducted with SYBER Green II (made by Molecular Probe Co.) and dying was conducted for 20 to 40 min according to a protocol of addition to the product. A Fluoro S Multiimager (BiORad Co.) was then employed to irradiate ultraviolet radiation and pick up the fluorescent image. Multianalyst, an attached image analyzing software package, was used to determine the amount of RNA that had been synthesized from the image picked up. The various values of the results were compared. An increase in ability to incorporate 3′-dATP should result in a drop in the synthesis level. Accordingly, a comparison was made with a control, and the inverse thereof was employed as indicator of how readily 3′-dATP was incorporated.

[2] = tested on: fluorescent-labeled 3′-deoxynucleotide; experiment: Ability to incorporate fluorescent-labeled 3′-deoxynucleotide, fluorescent signal intensity on ABI 377 XL Sequencer
Protocol: A comparison was conducted of the ability to incorporate florescent-labeled 3′-deoxynucleotide of Δ-type enzyme of purified T7 RNA polymerase.
This method was conducted in accordance with the method of Sasaki et al. (Sasaki, N., et al. Gene, 222(1): 17-24 (1998)). In greater detail, pBluescriptII DNA was employed as template. A solution obtained by mixing Bodipy(R6G)-3′dATP, Bodipy(FL)-3′dGTP, Bodipy(581/591)-3′dCTP, Bodipy(564/570)-3′dUTP, ATP, GTP, CTP, and UTP in prescribed proportions was employed to conduct reactions differing only with regard to the T7 RNA polymerase employed. The enzymes employed were 100 units of T7 RNA polymerase (wild type) and T7 RNA polymerase F644Y; and 50 units of T7 RNA polymerase F644Y/Δ1. The reaction product was subjected to electrophoresis with an ABI 377 XL Sequencer. The average value of the fluorescent signal intensity was compared for each nucleotide.
Column (2) is a conversion of the value of (1) per unit of enzyme. Numbers shown in parentheses denote values relative to a value of “1” for the signal intensity of wild enzyme. […] Since the ABI 377 XL Sequencer is not a device for quantitative analysis, and operations is conducted on an extremely small amount of samples, large errors are to be expected.

3′-dATP [3] = experiment: Test (2): 3′-dATP added during in vitro transcription with Biotin-labeled CTP, chemoluminescent signal detection; conditions: 3′-dATP concentration 0.00125 mM, wild form taken as 1, average of three runs
Protocol: as §1
In this method, 3′-dATP was added during an in vitro transcription reaction and the synthesis level was determined by comparison with synthesis impairment. This will be described in greater detail. The template employed was pBluescriptII (Stratagene) pretreated with the restriction enzyme ScaI (made by Nippon Gene). The reaction conditions were: 40 mM Tris-HCl, pH 8.0, 25 mM NaCl, 8 mM MgCl2, 2 mM spermidine-(HCl)3, and 5 mM DTT. The concentration of ribonucleotides rATP, rCTP, rGTP, and rUTP was 0.5 mM. A 0.1 mM quantity of Biotin-labeled CTP was added and 3′-dATP was added in ranges of 0.00125 mM, 0.0025 mM, and 0.005 mM. A 25 U quantity of enzymes purified as set forth above were added to 10 μL of this solution and the reaction was conducted for 60 min at 37° C. At the conclusion of the reaction, 1 μL of 10× gel loading buffer (1 mM EDTA, 1% SDS, 50% glycerol, and 0.05% BPB) was added. The entire solution was then subjected to electrophoresis in a 1% modified formamide gel. At the conclusion of electrophoresis, northern hybridization was conducted, the synthesized product was transcribed onto a nylon membrane, and signal detection was conducted based on a chemoluminescent substrate according to a protocol of anti-SA-AP antibody (made by Oriental Yeast Co., diluted 20,000-fold) and CDP-Star™ (made by Roche Co.). A Fluoro S Multiimager (BioRad Co.) and Multianalyst, an attached image analyzing software package, were then employed to determine the level of the signal detected.

[4] = relative to a value of 1 for the signal intensity of wild enzyme

| Molecule | Relative ability to incorporate 3′-dATP (3′-dATP [1]) | (1) Average signal intensity U ([2]; Bodipy(564/570)-3′dUTP, 100 units of enzyme (50 units for F644Y/Δ1)) | (1) Average signal intensity C ([2]; Bodipy(581/591)-3′dCTP, 100 units of enzyme (50 units for F644Y/Δ1)) | (1) Average signal intensity G ([2]; Bodipy(FL)-3′dGTP, 100 units of enzyme (50 units for F644Y/Δ1)) | (1) Average signal intensity A ([2]; Bodipy(R6G)-3′dATP, 100 units of enzyme (50 units for F644Y/Δ1)) | (2) Signal intensity per unit of enzyme G ([2]; conversion of (1) per unit of enzyme) | Signal intensity per unit of enzyme A, value in parentheses relative to wild enzyme [2, 4] | Signal intensity per unit of enzyme C, value in parentheses relative to wild enzyme [2, 4] | Signal intensity per unit of enzyme G, value in parentheses relative to wild enzyme [2, 4] | Signal intensity per unit of enzyme U, value in parentheses relative to wild enzyme [2, 4] | Relative ability to incorporate 3′-dATP (3′-dATP [3]) | Relative ability to incorporate 3′-dATP (3′-dATP [3]; listed as F644Y/Δ3) | Relative ability to incorporate 3′-dATP (3′-dATP [3]; listed as T7 RNA polymerase F644Y/Δ 3) |
| --- | --- | --- | --- | --- | --- | --- | --- | --- | --- | --- | --- | --- | --- |
| T7 RNA polymerase (wild type): wild RNA polymerase derived from T7 phage | 1.00 | 120 | 146 | 220 | 67 | 2.2 | (1.0) | (1.0) | (1.0) | (1.0) | 1.00 | – | – |
| B1 | almost the same results | – | – | – | – | – | – | – | – | – | – | – | – |
| B2 | – | – | – | – | – | – | – | – | – | – | – | 2.00±0.3 and 2.00 | 2.00 ± 0.3 |
